Test system: murine peritoneal macrophages
Assay: Secretion of nitric oxide by murine peritoneal macrophages in vitro (Griess reaction)
Type: cell-based, ICR mice
Settings: 24 hours
Experimental: Ten ICR mice were injected intraperitoneally with 1 ml 3% w/v aqueous thioglycolate. After 3 days, the mice were sacrificed by cervical dislocation. Macrophages were harvested by opening the peritoneum and lavaging the space with PBS. The PBS lavage from each sacrificed mouse was pooled. […] The cells were allowed to adhere on the bottom of the wells of microtiter plates for 1 hr at 37° C. in a humidified atmosphere of […] and 5% CO2. Next, the supernatant in the wells was carefully removed. […] The contacted cells were incubated at 37° C. in a humidified atmosphere of […] and 5% CO2 for 24 hours. At 24 hours, the amount of nitrate present in the cell-free culture medium was determined by the Griess reaction. (See Green L. C. et al, Analysis of nitrate, nitrite, and [15N] nitrate in biological fluids, Anal. Biochem., 1982, 126:131-138.) A 150 μl aliquot of cell-free culture medium was pipetted from each microtiter plate well, and reacted with 50 μl of Griess reagent for 10 minutes in a fresh microtiter plate well. Absorbance of the aliquot was then measured at 540 nm using a microplate reader (BTI, ELX 800).

**Q.** With lipopolysaccharide [LPS] as the substance, how does the “Increased secretion of nitric oxide, dose dependence” value read?
**A.** The value was “dose-dependent at low LPS concentrations”.

From patent US8158750B2, “Preparation and standardization of immunomodulatory peptide-linked glucans with verifiable oral absorbability from coriolus versicolor” (The Chinese University of Hong Kong, priority 2002, dated 2012)
